“And” between values parts separate entries of the source, which are not always exact repeats. Identical values can stand only once.
Test system: human primary preadipocytes
Experiment: Suppression of adipogenesis in cultures of human primary preadipocytes (EC50)
Assay type: cell-based

EC50 | SMILES
25 µM and 7.6 µg/mL | O=c1c(O)c(-c2ccc(O)c(O)c2)oc2cc(O)cc(O)c12 [Phytonutrient C5, Quercetin]
50 µM and 14.3 µg/mL | O=c1c(O)c(-c2ccc(O)c(O)c2)oc2cc(O)ccc12 [Phytonutrient C4, Fisetin]
40 µM and 9.1 µg/mL | Oc1ccc(/C=C/c2cc(O)cc(O)c2)cc1 [Phytonutrient C3, Resveratrol]
20 µM and 9.2 µg/mL | O=C(OC1Cc2c(O)cc(O)cc2OC1c1cc(O)c(O)c(O)c1)c1cc(O)c(O)c(O)c1 (stereo not shown) [Phytonutrient C7, Epigallocatechin Gallate (EGCG)]

The remaining lines, values behind:

SMILES | EC50
COc1ccc2cc3[n+](cc2c1OC)CCc1cc2c(cc1-3)OCO2 [Phytonutrient C1, Berberine] | 10 µM and 3.5 µg/mL
COc1cc(/C=C/C(=O)/C=C(O)/C=C/c2ccc(O)c(OC)c2)ccc1O [Phytonutrient C9, Curcumin] | 20 µM and 7.5 µg/mL
O=c1cc(-c2ccc(O)c(O)c2)oc2cc(O)cc(O)c12 [Phytonutrient C2, Luteolin] | 20 µM and 5.7 µg/mL

— patent US20220378814A1, “COMPOSITION OF PHYTONUTRIENTS FOR OBESITY PREVENTION” (ROSEMAN UNIVERSITY OF HEALTH SCIENCES, priority 2021, published 2022)
